Where two headings read alike, the source gives them in different places. Where a SMILES comes first, the peptide text is derived from it. [ ]: non-standard residue; d: D form. The star is where a group is joined. X1 = COC1=CC(=O)N(C(=O)[C@@H](O*)C(C)C)[C@H]1Cc1ccccc1; NMe2Val = CC(C)[C@@H](C(=O)*)N(C)C; NMeV = CN[C@H](C(=O)O)C(C)C
Experiments:
[1] = tested on: murine P388 lymphocytic leukemia cells; experiment: growth inhibition of murine P388 lymphocytic leukemia cells; type: cell-based; conditions: dosage inhibiting tumor cell growth by 50%
Method: (§1) All compounds synthesized were first evaluated for in vitro antitumor activity against murine P388 lymphocytic leukemia cells and against murine L1210 leukemia cells and human CA46 Burkitt lymphoma cells using techniques described by Hamel & Lin (see: HAMEL, E., and LIN, C. M., […], Interaction of combretastatin, a new plant-derived antimitotic agent, with tubulin, Biochemical Pharmacology, 32, 3864). The compounds were also evaluated in the NCI's human tumor 60-cell-line in intro primary screen as described by Monks et al. (see: MONKS, A., SCUDIERO, et al., 1991, New colorimetric cytotoxicity assay for anticancer drug screening, Journal of the National Cancer Institute, 83, 757). Data analyses were performed using methods described by Boyd and Paull (see: BOYD, M. R., et al., 1995, Some practical considerations and applications of the National Cancer Institute in vitro anticancer drug discovery screen, Drug Development Research, 34, 91). A tubulin polymerization inhibition assay was performed according to a modified version of the procedure used previously and described by Muzaffar et al. (see: MUZAFFAR, A., et al., 1990, Antitubulin effects of derivatives of 3-demethylthiocolchicine, methylthio esters of natural colchicinoids, and thioketones derived from thiocolchicine, Comparison with colchicine, Journal of Medicinal Chemistry, 33, 567) to evaluate the effects of dolastatin 15 on cellular microtubule assembly. The new assay for these compounds employed a drug-tubulin preincubation (15 min.) with 10 μM tubulin in 0.8 M glutamate at 30° C., followed by addition of GTP and incubation (20 min.) at 30° C., with tubulin polymerization monitored turbidimetrically in GILFORD recording spectrophotometers.

tubulin [2] = experiment: tubulin polymerization inhibition, 0.8 M glutamate at 30° C.; type: biochemical; conditions: read-out: tubulin assembly IC50
Method: as §1
Since these high molecular weight polymers, like microtubules, scatter light, they make it impossible to quantify drug effects by turbidimetry or centrifugation. […] (no MgCl2 added to reactions).

[3] = tested on: murine L1210 leukemia cells; conditions: read-out: Mouse Leukemia L1210 IC50; cells counted after 24 hours of growth
Method: as §1

[4] = tested on: NCI 60-cell-line in vitro human tumor panel; conditions: read-out: Mean Panel GI50; mean ± S.D. of triplicate tests (* duplicate)
Method: as §1

[5] = tested on: human CA46 Burkitt lymphoma cells; conditions: read-out: Human CA46 Burkitt Lymphoma IC50; cells counted after 20 hours
Method: as §1

Erwinia carotovora = experiment: antimicrobial disk susceptibility test; type: cell-based; conditions: twofold dilutions
Method: Antimicrobial disk susceptibility tests were performed according to the method established by the National Committee for Clinical Laboratory Standards (NCCLS, 1997). MUELLER-HINTON agar was used for susceptibility testing of Staphylococcus aureus, Enterococcus faecalis, Micrococcus luteus, Escherichia coli, Enterobacter cloacae, Bacillus subtilis, Pseudomonas aeruginosa, and Erwinia carotovora, Gonococcal Typing agar for Neisseria gonorrhoeae, and YM agar for Candida albicans and Cryptococcus neoformans. Immediately prior to susceptibility assays, compounds were reconstituted in sterile DMSO and twofold dilutions applied to sterile 6-mm disks. Zones of inhibition were read at 16 hours for bacterial cultures (except for M. luteus) and 42 hours for fungal cultures and M. luteus. MIC determinations were performed in duplicate.

tubulin [6] = conditions: cited from earlier work
[7] = tested on: human CA46 Burkitt lymphoma cells; experiment: mitotic arrest in drug-treated CA46 Burkitt cells; type: cell-based; conditions: 80 nM drug for 20 hours, control cells 3% mitotic
Method: To further verify the assumption that this entire series of compounds is acting intracellularly by interfering with tubulin function, the drug-treated Burkitt cells for mitotic arrest were analyzed.

tubulin [8] = conditions: read-out: tubulin polymerization IC50 (new experiments); 1 M monosodium glutamate-1 mM MgCl2; maximum concentration used 40 μM

COC1=CC(=O)N(C(=O)[C@@H](OC(=O)[C@@H]2CCCN2C(=O)[C@@H]2CCCN2C(=O)[C@H](C(C)C)N(C)C(=O)[C@@H](NC(=O)[C@H](C(C)C)N(C)C)C(C)C)C(C)C)[C@H]1Cc1ccccc1 [Compound 1, dolastatin 15] (NMe2Val-V[NMeV]PP-X1)
Mouse Leukemia P388 ED50 [1]: 2.4 ng/mL
IC50 (tubulin [2]): 5.2 µM
IC50 [3]: 0.004 µM
GI50 [4]: 0.00112 ± 0.0005 µM
IC50 [5]: 0.002 µM
Minimum inhibitory concentration, Erwinia carotovora (Erwinia carotovora): 3.12-6.25 μg/disk
IC50 (tubulin [6]; read-out: tubulin polymerization IC50 (Bai et al. 1992), 10 μM tubulin, 1 M monosodium glutamate-1 mM MgCl2, 20 min at 37° C.): 23 µM
interaction with purified tubulin weaker than that of dolastatin 10 (tubulin [6]; relative to dolastatin 10): about 20 fold
% Mitotic Cells [7]: 31%
IC50 (tubulin [8]): 19 ± 0.3 µM

Source: US6686445B1, “Synthetic antineoplastic agents derived from dolastatin 15 and methods of making same” (Arizona Board of Regents, acting for and on behalf of …, priority 1997, dated 2004)
